These are literature values, as cited in US20110064750A1, “METHOD AND KIT FOR TREATING NICOTINE ADDICTION” (Nabi Biopharmaceuticals, priority 2009, published 2011).

Each structure is given as a SMILES string. Where two headings read alike, the source gives them in different places.

Series [1] deals with smoking abstinence. As to conditions: 12 week course, varenicline 1.0 mg bid, bupropion 150 mg SR bid, carbon-monoxide confirmed.
Series [2] concerns smoking abstinence.
The target of series [3] is α3β2 nicotinic acetylcholine receptors (Homo sapiens, UniProt P17787+P32297). As to conditions: blocking nicotine activation of nAChRs.
The target of series [4] is α4β2 nicotinic acetylcholine receptors (Homo sapiens, UniProt P17787+P43681). As to conditions: blocking nicotine activation of nAChRs.
The test system of series [5] is neuronal uptake of norepinephrine and dopamine.
A further series relates to smoking cessation. To be noted: for Time at which efficacy generally is apparent: previous studies.
The conditions of series [6]: salt form, powder.
Another series deals with α4β2 nicotinic receptors (Homo sapiens, UniProt P17787+P43681). To be noted: stimulating receptor-mediated activity at a significantly lower level than nicotine.
α4β2 nicotinic receptors, sequence (P43681 29-627 limits assumed): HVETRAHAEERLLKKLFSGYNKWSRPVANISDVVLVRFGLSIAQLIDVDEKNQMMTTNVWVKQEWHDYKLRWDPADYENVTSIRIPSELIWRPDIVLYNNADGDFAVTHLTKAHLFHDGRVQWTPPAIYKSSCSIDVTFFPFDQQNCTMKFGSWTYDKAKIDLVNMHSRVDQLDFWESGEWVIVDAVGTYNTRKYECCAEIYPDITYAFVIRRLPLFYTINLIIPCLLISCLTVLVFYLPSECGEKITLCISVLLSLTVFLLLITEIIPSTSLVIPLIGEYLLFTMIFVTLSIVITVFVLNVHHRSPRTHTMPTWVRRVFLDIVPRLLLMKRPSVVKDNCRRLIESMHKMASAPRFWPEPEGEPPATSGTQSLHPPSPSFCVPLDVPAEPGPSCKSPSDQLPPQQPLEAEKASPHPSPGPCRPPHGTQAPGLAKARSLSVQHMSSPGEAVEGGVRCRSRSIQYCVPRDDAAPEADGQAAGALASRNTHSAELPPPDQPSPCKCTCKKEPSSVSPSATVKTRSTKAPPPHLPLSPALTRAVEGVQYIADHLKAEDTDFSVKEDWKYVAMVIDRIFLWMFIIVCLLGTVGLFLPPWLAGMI
α4β2 nicotinic receptors, sequence (P17787 26-502): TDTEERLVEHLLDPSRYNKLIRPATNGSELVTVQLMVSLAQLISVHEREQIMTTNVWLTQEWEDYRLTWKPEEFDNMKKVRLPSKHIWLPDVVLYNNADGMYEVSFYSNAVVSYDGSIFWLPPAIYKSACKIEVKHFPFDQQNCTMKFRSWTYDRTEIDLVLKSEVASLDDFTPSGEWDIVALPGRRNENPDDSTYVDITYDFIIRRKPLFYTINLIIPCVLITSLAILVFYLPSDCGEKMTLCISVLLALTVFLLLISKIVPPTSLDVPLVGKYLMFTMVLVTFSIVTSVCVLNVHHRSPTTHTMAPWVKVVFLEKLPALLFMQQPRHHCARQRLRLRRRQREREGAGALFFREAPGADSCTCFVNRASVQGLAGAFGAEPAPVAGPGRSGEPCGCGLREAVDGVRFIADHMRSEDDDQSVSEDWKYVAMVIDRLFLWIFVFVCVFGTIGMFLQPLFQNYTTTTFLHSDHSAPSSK

α4β2 nicotinic acetylcholine receptors, sequence (P43681 29-627 limits assumed): as the sequence (P43681 29-627 limits assumed) above
α4β2 nicotinic acetylcholine receptors, sequence (P17787 26-502): as the sequence (P17787 26-502) above
α3β2 nicotinic acetylcholine receptors, sequence (P32297 32-505): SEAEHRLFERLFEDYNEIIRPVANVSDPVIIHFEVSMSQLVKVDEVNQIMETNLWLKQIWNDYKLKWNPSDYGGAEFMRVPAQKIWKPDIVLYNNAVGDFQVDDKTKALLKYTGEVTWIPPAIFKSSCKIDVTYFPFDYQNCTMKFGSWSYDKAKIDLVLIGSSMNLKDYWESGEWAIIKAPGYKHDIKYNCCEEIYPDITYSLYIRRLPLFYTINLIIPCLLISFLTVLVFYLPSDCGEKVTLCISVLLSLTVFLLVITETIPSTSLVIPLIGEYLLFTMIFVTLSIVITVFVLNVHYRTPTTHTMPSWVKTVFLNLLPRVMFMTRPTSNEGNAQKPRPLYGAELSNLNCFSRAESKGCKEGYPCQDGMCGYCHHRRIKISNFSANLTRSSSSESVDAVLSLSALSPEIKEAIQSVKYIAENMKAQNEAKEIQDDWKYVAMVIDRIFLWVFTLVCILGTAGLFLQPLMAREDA
α3β2 nicotinic acetylcholine receptors, sequence (P17787 26-502): as the sequence (P17787 26-502) above

As to `CC(NC(C)(C)C)C(=O)c1cccc(Cl)c1.Cl` (stereo not shown) [Bupropion, Bupropion hydrochloride], in the series with smoking abstinence [1] (Study A), the “Continuous Abstinence Rate (Wks 9-12)” value was 16%. Besides, in the series with smoking abstinence [1] (Study B), the “Continuous Abstinence Rate (Wks 9-12)” value was 14%. Also, in the series with smoking abstinence [2] (100 mg/day), the “Abstinence from week 4 through Week 7 (4-week quit)” value (from here on “Abstinence … (4-week quit)”) was 22%, the “Abstinence from week 4 through Week 12” value is reported as 20% and the “Abstinence from week 4 through Week 26” value is reported as 16%. In addition, in the series on smoking abstinence [2] (150 mg/day), the “Abstinence … (4-week quit)” value is given as 27%, the “Abstinence from week 4 through Week 12” value is 20% and the “Abstinence from week 4 through Week 26” value is given as 18%. Besides, in the series with smoking abstinence [2] (300 mg/day), the “Abstinence … (4-week quit)” value is listed as 36%, the “Abstinence from week 4 through Week 12” value is 25% and the “Abstinence from week 4 through Week 26” value was 19%. Further, the “Times more effective in blocking α3β2 than α7” value in series [3] is on record as 50 times. The “Times more effective in blocking α4β2 than α7” value in [4] was 12 times. For the same compound, the “Inhibition of the neuronal uptake of norepinephrine and dopamine” value in series [5] is reported as “relatively weak inhibitor”. Besides, in the series with monoamine oxidase, the “Inhibition of monoamine oxidase” value was “does not inhibit”. Besides, the “Time at which efficacy may diminish” value with smoking cessation (even though administration is ongoing) is reported as “after about six or seven weeks”. In addition, in the series on smoking cessation (in vivo), the “Chances of quitting smoking compared with placebo” value is on record as “double”; the “Nicotine craving and nicotine withdrawal symptoms” value is recorded as “lower”. The “Time at which efficacy generally is apparent” value in the series on smoking cessation is reported as “one week after the first dose”. Further, the Solubility in water entry in series [6] is listed as “highly soluble in water”.
As for `c1cnc2cc3c(cc2n1)[C@@H]1CNC[C@H]3C1` [Varenicline, 7,8,9,10-tetrahydro-6,10-methano-6H-pyrazino[2,3-h][3]benzazpine, (2R,3R)-2,3-dihydroxybutanedioate(1:1)], the “Continuous Abstinence Rate (Wks 9-12)” value was 21% in the series with smoking abstinence [1] (Study A) and 22% in the series with smoking abstinence [1] (Study B). For the same compound, the “Agonist activity at α4β2 nicotinic receptors” value on α4β2 nicotinic receptors was “low level agonist”. In addition, the “Time at which efficacy generally is apparent” value with smoking cessation was “one week after the first dose”. In addition, the Solubility in water result in series [6] is “highly soluble in water”.
